The target in test [1] is T1, 5-LO (Rattus norvegicus, UniProt P12527).
T1 construct: RBL-1 cell homogenate (1.5 × 10^7 cells); endogenous in cells; host or cells: RBL-1 (rat basophilic leukemia-1) cell homogenate
T1 sequence (P12527 1-673): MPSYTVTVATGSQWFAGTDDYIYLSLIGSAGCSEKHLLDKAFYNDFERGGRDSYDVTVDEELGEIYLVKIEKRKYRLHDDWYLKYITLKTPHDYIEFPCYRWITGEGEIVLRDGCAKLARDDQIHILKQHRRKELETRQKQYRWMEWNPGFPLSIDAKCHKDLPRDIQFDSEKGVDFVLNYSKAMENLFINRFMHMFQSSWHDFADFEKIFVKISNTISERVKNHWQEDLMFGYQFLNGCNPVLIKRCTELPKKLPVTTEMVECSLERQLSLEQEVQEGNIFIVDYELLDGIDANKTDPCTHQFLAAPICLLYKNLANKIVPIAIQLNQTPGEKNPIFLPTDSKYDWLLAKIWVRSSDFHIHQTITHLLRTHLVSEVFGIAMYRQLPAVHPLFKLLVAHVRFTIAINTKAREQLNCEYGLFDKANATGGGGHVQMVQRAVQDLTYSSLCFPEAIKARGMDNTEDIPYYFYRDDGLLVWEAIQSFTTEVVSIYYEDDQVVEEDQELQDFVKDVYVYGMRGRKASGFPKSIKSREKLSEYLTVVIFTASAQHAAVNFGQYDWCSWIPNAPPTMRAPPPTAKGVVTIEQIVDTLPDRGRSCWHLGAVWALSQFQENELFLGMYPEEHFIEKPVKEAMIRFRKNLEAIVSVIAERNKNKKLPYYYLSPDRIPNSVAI
In words: Measurement of RBL-1 5-lipoxygenase activity. It counts as biochemical. The following applies: RBL-1 cell homogenate; for IC50: triplicate five-point titration; for inhibition at 10 µg/mL: 10 μg/mL. How it is done:
The modified method of Blackman et al. was used. Rat basophilic leukemia-1 (RBL-1) cells were grown in RPMI-1640 medium containing 10% heat-inactivated newborn calf serum (NCS), penicillin 100 units/mL, and streptomycin […]. Cells were cultured at 37 °C in 5% CO2. The assay system (0.5 mL) consisted of 50 mM phosphate buffer (pH 7.4), the test compound, 2 mM CaCl2, 0.66 mM arachidonic acid, and RBL-1 cell homogenate (1.5 × 10^7 cells). Reaction mixtures were incubated at 37 °C for 3 min, and then MeOH (0.5 mL) was added to terminate the reaction. The mixture was centrifuged to remove the precipitated proteins, 5-HETE in the supernatant was analyzed by HPLC. The mixture was eluted through a Cosmosil 5C18 column (4.6 × 150 mm) at room temperature with 85% CH3CN at 235 nm.

The target in test [2] is T2, COX-2 (Ovis aries, UniProt P79208).
T2 construct: isolated from sheep placenta, purity 70%; purchased Cayman Chemical Company; host or cells: sheep placenta (tissue isolate)
T2 sequence (P79208 17-603): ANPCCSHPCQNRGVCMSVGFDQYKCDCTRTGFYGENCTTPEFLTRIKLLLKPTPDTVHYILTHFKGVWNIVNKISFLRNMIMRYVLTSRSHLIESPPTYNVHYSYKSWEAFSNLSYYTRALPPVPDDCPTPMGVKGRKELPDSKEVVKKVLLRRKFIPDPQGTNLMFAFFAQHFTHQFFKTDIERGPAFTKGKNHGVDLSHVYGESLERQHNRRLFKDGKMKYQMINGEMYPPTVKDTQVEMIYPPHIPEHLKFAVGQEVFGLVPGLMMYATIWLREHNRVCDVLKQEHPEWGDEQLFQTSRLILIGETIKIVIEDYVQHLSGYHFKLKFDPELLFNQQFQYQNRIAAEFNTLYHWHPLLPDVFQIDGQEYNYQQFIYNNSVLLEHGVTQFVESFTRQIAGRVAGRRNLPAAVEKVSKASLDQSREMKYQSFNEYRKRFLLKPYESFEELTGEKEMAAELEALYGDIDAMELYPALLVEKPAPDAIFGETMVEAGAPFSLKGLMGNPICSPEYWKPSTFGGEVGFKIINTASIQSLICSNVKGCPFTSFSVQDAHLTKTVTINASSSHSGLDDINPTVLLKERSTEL
Nature of the test: COX-2-catalyzed prostaglandin biosynthesis assay in vitro. The format is biochemical, sheep. The following applies: for inhibition at 10 µg/mL: 10 μg/mL, COX-2 from sheep placenta. The procedure:
(§1) Experiments were performed according to Futaki et al. with modification. In brief, 200 U of COX-1 or COX-2 enzyme was suspended in 0.1 M Tris-HCl buffer (PH 7.5) containing hematin (1 μM) and phenol (2 mM), as co-factors. The reaction medium was preincubated with sample for 2 min at 37 °C, and 51.4 μM of […] arachidonic acid (Sigma, St. Louis, MO, USA) was added and incubated for 2 min at 37 °C. To terminate the reaction and extract PGE2, 400 μL of n-hexane/EtOAc (2:1, V/V) was added to the reaction mixture and the preparation was centrifuged at 2,000 rpm for 1 min. The organic solvent phase was discarded. The extraction procedure was repeated twice, then 50 μL EtOH was added to the aqueous phase, and the preparation was at 2,000 rpm for 1 min. The amount of PGE2 was measured by radioimmunoassay using a liquid scintillation counter. COX-1 (EC1.14.99.1, isolated from ram seminal vesicles; Cayman Chemical Company, Ann Arbor, MI, USA) and COX-2 (isolated from sheep placenta, purity 70%; Cayman Chemical Company) were used.

Test [3] deals with T3, COX-1 (Ovis aries, UniProt P05979).
T3 construct: isolated from ram seminal vesicles; purchased Cayman Chemical Company; host or cells: ram seminal vesicles (tissue isolate)
T3 sequence (P05979 25-600): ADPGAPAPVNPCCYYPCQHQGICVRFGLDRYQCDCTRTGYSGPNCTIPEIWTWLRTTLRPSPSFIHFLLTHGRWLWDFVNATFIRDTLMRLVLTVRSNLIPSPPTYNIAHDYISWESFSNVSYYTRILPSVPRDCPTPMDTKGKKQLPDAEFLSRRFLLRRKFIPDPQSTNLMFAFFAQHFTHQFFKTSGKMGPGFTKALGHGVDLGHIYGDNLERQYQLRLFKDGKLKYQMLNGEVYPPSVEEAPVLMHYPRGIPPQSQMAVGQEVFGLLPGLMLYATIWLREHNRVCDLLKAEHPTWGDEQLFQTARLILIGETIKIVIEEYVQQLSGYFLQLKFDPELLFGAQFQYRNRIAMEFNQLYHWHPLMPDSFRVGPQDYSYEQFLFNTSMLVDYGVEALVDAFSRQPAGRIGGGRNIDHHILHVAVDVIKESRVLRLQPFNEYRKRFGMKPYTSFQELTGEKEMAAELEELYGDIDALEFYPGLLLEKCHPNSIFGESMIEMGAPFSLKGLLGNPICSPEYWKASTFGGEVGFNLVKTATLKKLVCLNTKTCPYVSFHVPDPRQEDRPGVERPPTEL
In words: COX-1-catalyzed prostaglandin biosynthesis assay in vitro. It counts as biochemical, ram. The following applies: for inhibition at 10 µg/mL: 10 μg/mL, COX-1 from ram seminal vesicles; for IC50: triplicate five-point titration. How it is done: as §1

Data on 5 compounds can be found in publication PMC6270288, “Yellow Pigments, Fomitellanols A and B, and Drimane Sesquiterpenoids, Cryptoporic Acids P and Q, from Fomitella fraxinea and Their Inhibitory Activity against COX and 5-LO” (Molecules, 2013).

Turning to `C[C@]12c3c(ccc(O)c3C=C3C(CO)=CC(=O)[C@@H]31)O[C@@H]2O` [Compound 1], 15.1 µM corresponded to half-maximal inhibition in test [1] (IC50). In addition, the “inhibitory activities against COX-2 (in words)” value in test [2] is “not apparent”.
Take `CC(C)O[C@H]1Oc2ccc(O)c3c2[C@@]1(C)[C@H]1C(=O)C=C(CO)C1=C3` [Compound 1a, 5-hydroxy-7-hydroxymethyl-1-isopropoxy-9b-methyl-9a,9b-dihydro-H-2-oxa-cyclopenta[d]acenaphthylen-9-one]: the inhibition (as a rule, the drop in the measured response relative to a control, in per cent) at 10 µg/mL came to 84.7% in test [1], 7.5% in test [2] and 90.5% in test [3]. Further, the figures for the IC50 in test [1] and in test [3] were 15.1 µM and 47.7 µM, respectively.
As for `C=C1CC[C@H]2[C@](C)(COC(C)=O)CCC[C@]2(C)[C@H]1CO[C@@H](C(=O)O)[C@H](CC(=O)O)C(=O)OC` [Compound 3, Cryptoporic acid P], the inhibition at 10 µg/mL in test [1] worked out at 14.9%; in test [2], 1.7%; in test [3], 40.2%.
Turning to `C=C1CC[C@H]2[C@](C)(COC(C)=O)CCC[C@]2(C)[C@H]1CO[C@@H](C(=O)OC)[C@H](CC(=O)O)C(=O)OC` [Compound 4, Cryptoporic acid Q], the inhibition at 10 µg/mL was determined as 50.1% in test [1], 10.3% in test [2] and 66.5% in test [3]. In addition, the results for the IC50 in test [1] and in test [3] were 204 µM and 78.8 µM, respectively.
With `C=C1CC[C@H]2[C@](C)(CO)CCC[C@]2(C)[C@H]1CO[C@@H](C(=O)O)[C@H](CC(=O)O)C(=O)OC` [Compound 6, cryptoporic acid N], the inhibition at 10 µg/mL in test [1] came out at 28.9%; in test [2] it was 19%; in test [3], 35.8%.
